Reference: patent publication US20230157993A1, “PHARMACEUTICAL COMPOSITION FOR TREATING OR PREVENTING ALOPECIA INCLUDING DECURSIN” (University-Industry Cooperation Group of Kyung Hee …, priority 2021, published 2023)

Experiments:
[1] = tested on: caspase-3; experiment: Immunoblotting of caspase-3 in TNF-α-stimulated HaCaT keratinocytes; assay type: cell-based, Human; conditions: HaCaT cells; 10 nM decursin; 100 ng/mL TNF-α, 24 hours; FIG. 5
Protocol: (§1) Human keratinocyte HaCaT cells were grown at 37° C. under atmosphere with 95% humidity in the presence of 5% CO2, in Dulbecco's modified Eagle's medium (DMEM, Gibco; Thermo Fisher Scientific, Inc., Waltham, Mass., USA) supplemented with 10% v/v fetal bovine serum (FBS, Gibco), 2 mM glutamine, 100 IU/ml penicillin, and 100 μg/mL of streptomycin (Gibco). HaCaT cells were dispensed into 6-well plates by 1×10^6 cells/wells. After stabilization, 1 μM DEX and 0.1, 1, and 10 nM decursin were treated in the presence of 100 ng/mL of TNF-α for 24 hours.
(§2) Proteins were extracted from the collected skin tissues and HaCaT cells using RIPA lysis buffer (Tech & Innovation, Gangwon, Korea) containing a protease inhibitor cocktail (Roche, Hoffmann, USA). Lysates were quantified by the Bradford method and denatured with dodecyl sulfate buffer at 98° C. for 5 minutes. Proteins were electrophoresed onto a polyvinylidene fluoride membrane. The membranes were incubated continuously with primary anti-caspase-3, -7, and -8, followed with secondary HRP-conjugated anti-rabbit and anti-mouse antibodies.

[2] = tested on: ERK; experiment: Expression of ERK in decursin-treated keratinocytes; assay type: cell-based, Human; conditions: TNF-α
[3] = tested on: hair follicles of dorsal skin tissues; experiment: Histological analysis (H&E) of dorsal skin hair follicles in CYP-induced alopecia mice; assay type: in vivo, C57BL/6J mice; conditions: topical decursin, FIG. 2
Protocol: (§3) All animal testing procedures were approved by the Laboratory Animal Care and Use Committee of Kyung Hee University (KHUASP(SE)-13-046). 5-week-old male C57BL/6J mice were purchased from Raonbio Co., Ltd. (Yongin, Korea). All mice were kept in plastic cages at 22±1° C. under 50±5% humidity with 12 hours of light-dark cycles. After 1 week of adaptation, mice were randomly assigned to 6 groups: (1) CTR, normal control group, (2) CYP, cyclophosphamide-induced alopecia group, (3) DEX, dexamethasone (DEX) treated in CYP-induced alopecia mice as positive controls, (4) D1, 1 μM decursin treated in CYP-induced alopecia mice, (5) D10, 10 μM decursin treated in CYP-induced alopecia mice, and (6) D100, 100 μM decursin treated in CYP-induced alopecia mice.
(§4) To synchronize the phases of the hair growth cycle, the dark hairs on the dorsal skin of all mice except the CTR group were shaved on day 0 using a shaving cream. 9 days later, 150 mg/kg of CYP (Sigma-Aldrich, MO, USA) was dissolved in saline and injected one time intraperitoneally into all mice except the CTR group. Injection of CYP induced the stage of hair follicles to turn into dystrophic catagen. From day 9 to day 16, 100 μL of 1, 10 and 100 μM decursin (Sigma-Aldrich) in saline containing 0.1% dimethyl sulfoxide was topically treated onto the shaved dorsal skin once a day. […]

[4] = tested on: keratinocyte growth factor (KGF); experiment: Immunofluorescence assay of KGF+ expression in dorsal skin tissue of CYP-induced alopecia mice; assay type: in vivo, C57BL/6J mice; conditions: CIA mice, FIG. 3
Protocol: as §3
To synchronize the phases of the hair growth cycle, the dark hairs on the dorsal skin of all mice except the CTR group were shaved on day 0 using a shaving cream. 9 days later, 150 mg/kg of CYP (Sigma-Aldrich, MO, USA) was dissolved in saline and injected one time intraperitoneally into all mice except the CTR group. Injection of CYP induced the stage of hair follicles to turn into dystrophic catagen. From day 9 to day 16, 100 μL of 1, 10 and 100 μM decursin (Sigma-Aldrich) in saline containing 0.1% dimethyl sulfoxide was topically treated onto the shaved dorsal skin once a day. As a positive control, 0.1% DEX was administered topically to the shaved area on days 1, 3, 5, 7, and 9 to 16. Physiological saline was treated to the CTR and CYP groups during the experiment. […] on day 17, all mice were sacrificed under anesthesia.
Paraffin tissue sections were hydrated with xylene and ethanol, followed by blocking with 1% bovine serum albumin (BSA). The slides were incubated overnight at 4° C. with primary anti-rabbit keratinocyte growth factor (KGF) antibody. Secondary HRP-conjugated fluorescent antibody was treated onto tissue slides for 1 hour at room temperature.

[5] = tested on: PI3K; experiment: Expression of PI3K in decursin-treated keratinocytes; assay type: cell-based, Human; conditions: TNF-α
[6] = tested on: caspase-8; experiment: Immunoblotting of caspase-8 in TNF-α-stimulated HaCaT keratinocytes; assay type: cell-based, Human; conditions: HaCaT cells; 10 nM decursin; 100 ng/mL TNF-α, 24 hours; FIG. 5
Protocol: as §1, §2

[7] = tested on: AKT; experiment: Expression of AKT in decursin-treated keratinocytes; assay type: cell-based, Human; conditions: TNF-α
[8] = tested on: caspase-7; experiment: Immunoblotting of caspase-7 in TNF-α-stimulated HaCaT keratinocytes; assay type: cell-based, Human; conditions: HaCaT cells; 10 nM decursin; 100 ng/mL TNF-α, 24 hours; FIG. 5
Protocol: as §1, §2

[9] = tested on: CYP-induced alopecia mice; experiment: Skin monitoring of hair growth with a digital dermatoscope in CYP-induced alopecia mice; assay type: in vivo, C57BL/6J mice; conditions: topical, all concentrations of decursin (1, 10, 100 μM) or 0.1% DEX, FIG. 1
Protocol: as §3, §4

[10] = tested on: p38; experiment: Expression of p38 in decursin-treated keratinocytes; assay type: cell-based, Human; conditions: TNF-α
[11] = tested on: keratinocyte growth factor (KGF); experiment: Immunoblotting of KGF protein expression in skin tissues of CYP-induced alopecia mice; assay type: in vivo, C57BL/6J mice; conditions: CIA mice; 100 μM decursin topical; FIG. 4

CC(C)=CC(=O)O[C@H]1Cc2cc3ccc(=O)oc3cc2OC1(C)C [decursin]
rate of decrease of TNF-α-induced caspase-3 protein level [1]: 30.41%
expression of ERK [2]: suppression
hair follicle cycle stage (histology) [3]: hair follicles were in the anagen
shape of the ampulla of hair follicles, compared to CYP group [3]: normalized
KGF+ expression in the skin tissue (immunofluorescence) ([4]; 1 μM decursin topical): increased
KGF+ expression in the skin tissue (immunofluorescence) ([4]; 10 μM decursin topical): increased
KGF+ expression in the skin tissue (immunofluorescence) ([4]; 100 μM decursin topical): increased
expression of PI3K [5]: suppression
rate of decrease of TNF-α-induced caspase-8 protein level [6]: 41.07%
expression of AKT [7]: suppression
rate of decrease of TNF-α-induced caspase-7 protein level [8]: 48.27%
hair growth on the dorsal side (dermatoscope), compared to CYP group [9]: hair growth was observed
expression of p38 [10]: suppression
protein expression of KGF in skin tissues [11]: significantly increased
